GI50 and TGI data for three compounds are collected here from PubChem BioAssay (NCI).

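Values below derive from 48-hour exposures of cells grown in 96-well plates, with endpoints linearly interpolated between the two concentrations bracketing the appropriate inhibition level. GI50 = concentration required for 50% inhibition of growth. TGI denotes the concentration required for complete inhibition of growth.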

The first experiment deals with M14 melanoma. Briefly: NCI tumour cell line growth inhibition, 48 h.
In the case of `CC(C)(C)n1cc(-c2ccnc(NCCCNS(=O)(=O)c3ccc(C(F)(F)F)cc3)c2)c(-c2cccc(O)c2)n1`, the GI50 was 2 µM and the TGI is 3.93 µM.
The like results for `C=C1C(=O)O[C@H]2[C@H]1CC/C(COC(=O)NCc1ccc(Cn3c(=O)sn(CCCl)c3=O)cc1)=C\CC[C@@]1(C)O[C@@H]21` were, in that order, 1.82 µM and 3.65 µM.
For `COc1ccc2c(c1)c(=O)oc1cc(OC/C(C)=N\O)ccc12` the same measures were over 100 µM and over 100 µM.

The test system of another experiment is COLO 205 colon. Briefly: NCI tumour cell line growth inhibition, 48 h.
Consider `CC(C)(C)n1cc(-c2ccnc(NCCCNS(=O)(=O)c3ccc(C(F)(F)F)cc3)c2)c(-c2cccc(O)c2)n1`, for which the GI50 is 1.95 µM and the TGI is 3.78 µM.
The like results for `C=C1C(=O)O[C@H]2[C@H]1CC/C(COC(=O)NCc1ccc(Cn3c(=O)sn(CCCl)c3=O)cc1)=C\CC[C@@]1(C)O[C@@H]21` were, in that order, 1.84 µM and 3.6 µM.
For `COc1ccc2c(c1)c(=O)oc1cc(OC/C(C)=N\O)ccc12` the same measures were over 100 µM and over 100 µM.

Another experiment concerns SK-MEL-28 melanoma. Briefly: NCI tumour cell line growth inhibition, 48 h.
With `CC(C)(C)n1cc(-c2ccnc(NCCCNS(=O)(=O)c3ccc(C(F)(F)F)cc3)c2)c(-c2cccc(O)c2)n1`, the GI50 is 1.75 µM and the TGI worked out at 3.25 µM.
In the case of `C=C1C(=O)O[C@H]2[C@H]1CC/C(COC(=O)NCc1ccc(Cn3c(=O)sn(CCCl)c3=O)cc1)=C\CC[C@@]1(C)O[C@@H]21`, the GI50 is 1.74 µM and the TGI turned out to be 3.38 µM.
`COc1ccc2c(c1)c(=O)oc1cc(OC/C(C)=N\O)ccc12`: the GI50 is over 100 µM and the TGI was over 100 µM.

In a further experiment the test system is EKVX NSCLC. The experiment is described as follows: NCI tumour cell line growth inhibition, 48 h.
In the case of `CC(C)(C)n1cc(-c2ccnc(NCCCNS(=O)(=O)c3ccc(C(F)(F)F)cc3)c2)c(-c2cccc(O)c2)n1`, the GI50 is 1.82 µM and the TGI was 3.95 µM.
The like results for `C=C1C(=O)O[C@H]2[C@H]1CC/C(COC(=O)NCc1ccc(Cn3c(=O)sn(CCCl)c3=O)cc1)=C\CC[C@@]1(C)O[C@@H]21` were, in that order, 1.99 µM and 5.25 µM.
Turning to `COc1ccc2c(c1)c(=O)oc1cc(OC/C(C)=N\O)ccc12`, the GI50 was 3.38 µM and the TGI was over 100 µM.

For another experiment, the system named is BT-549 breast. Briefly: NCI tumour cell line growth inhibition, 48 h.
On to `CC(C)(C)n1cc(-c2ccnc(NCCCNS(=O)(=O)c3ccc(C(F)(F)F)cc3)c2)c(-c2cccc(O)c2)n1`, for which the GI50 was 1.61 µM and the TGI amounted to 3.05 µM.
For `C=C1C(=O)O[C@H]2[C@H]1CC/C(COC(=O)NCc1ccc(Cn3c(=O)sn(CCCl)c3=O)cc1)=C\CC[C@@]1(C)O[C@@H]21`, the GI50 was 1.45 µM and the TGI was 2.78 µM.
`COc1ccc2c(c1)c(=O)oc1cc(OC/C(C)=N\O)ccc12`: the GI50 is 49.2 µM and the TGI is over 100 µM.

The subject of a further experiment is SK-MEL-2 melanoma. The experiment is described as follows: NCI tumour cell line growth inhibition, 48 h.
For `CC(C)(C)n1cc(-c2ccnc(NCCCNS(=O)(=O)c3ccc(C(F)(F)F)cc3)c2)c(-c2cccc(O)c2)n1`, the GI50 is 2.1 µM and the TGI worked out at 3.95 µM.
The like results for `C=C1C(=O)O[C@H]2[C@H]1CC/C(COC(=O)NCc1ccc(Cn3c(=O)sn(CCCl)c3=O)cc1)=C\CC[C@@]1(C)O[C@@H]21` were, in that order, 10.6 µM and 24.7 µM.
The like results for `COc1ccc2c(c1)c(=O)oc1cc(OC/C(C)=N\O)ccc12` were, in that order, over 100 µM and over 100 µM.

The next experiment deals with OVCAR-3 ovarian. Briefly: NCI tumour cell line growth inhibition, 48 h.
On to `CC(C)(C)n1cc(-c2ccnc(NCCCNS(=O)(=O)c3ccc(C(F)(F)F)cc3)c2)c(-c2cccc(O)c2)n1`, for which the GI50 was 1.96 µM and the TGI was 3.84 µM.
As for `C=C1C(=O)O[C@H]2[C@H]1CC/C(COC(=O)NCc1ccc(Cn3c(=O)sn(CCCl)c3=O)cc1)=C\CC[C@@]1(C)O[C@@H]21`, the GI50 is 1.53 µM and the TGI came to 2.88 µM.
As to `COc1ccc2c(c1)c(=O)oc1cc(OC/C(C)=N\O)ccc12`, the GI50 is over 100 µM and the TGI is over 100 µM.

Another experiment relates to NCI-H522 lung. The experiment is described as follows: NCI tumour cell line growth inhibition, 48 h.
Consider `CC(C)(C)n1cc(-c2ccnc(NCCCNS(=O)(=O)c3ccc(C(F)(F)F)cc3)c2)c(-c2cccc(O)c2)n1`, for which the GI50 is 1.99 µM and the TGI was found to be 3.98 µM.
The like results for `C=C1C(=O)O[C@H]2[C@H]1CC/C(COC(=O)NCc1ccc(Cn3c(=O)sn(CCCl)c3=O)cc1)=C\CC[C@@]1(C)O[C@@H]21` were, in that order, 1.38 µM and 2.98 µM.
For `COc1ccc2c(c1)c(=O)oc1cc(OC/C(C)=N\O)ccc12` the same measures were 44.5 µM and over 100 µM.

A further experiment has as its system A549 NSCLC. Briefly: NCI tumour cell line growth inhibition, 48 h.
In the case of `CC(C)(C)n1cc(-c2ccnc(NCCCNS(=O)(=O)c3ccc(C(F)(F)F)cc3)c2)c(-c2cccc(O)c2)n1`, the GI50 was 2.02 µM and the TGI is 4.58 µM.
For the compound `C=C1C(=O)O[C@H]2[C@H]1CC/C(COC(=O)NCc1ccc(Cn3c(=O)sn(CCCl)c3=O)cc1)=C\CC[C@@]1(C)O[C@@H]21`, the GI50 is 14.2 µM and the TGI was 29.1 µM.
For `COc1ccc2c(c1)c(=O)oc1cc(OC/C(C)=N\O)ccc12` the same measures were over 100 µM and over 100 µM.

Another experiment deals with HOP-92 NSCLC. Briefly: NCI tumour cell line growth inhibition, 48 h.
On to `CC(C)(C)n1cc(-c2ccnc(NCCCNS(=O)(=O)c3ccc(C(F)(F)F)cc3)c2)c(-c2cccc(O)c2)n1`, for which the GI50 was 1.6 µM and the TGI came to 3.31 µM.
For `C=C1C(=O)O[C@H]2[C@H]1CC/C(COC(=O)NCc1ccc(Cn3c(=O)sn(CCCl)c3=O)cc1)=C\CC[C@@]1(C)O[C@@H]21` the same measures were 1.5 µM and 3.22 µM.
The like results for `COc1ccc2c(c1)c(=O)oc1cc(OC/C(C)=N\O)ccc12` were, in that order, 69.5 µM and over 100 µM.
